Test results published in patent US20250339812A1, “ELECTROCHEMICAL DIRECT AIR CAPTURE OF CARBON DIOXIDE USING REVERSIBLE REDOX-ACTIVE MATERIAL” (Massachusetts Institute of Technology, priority 2022, published 2025).
Like-named read-outs stand apart in the source and are kept apart here.

Tests used:
[1] = pKa of the NR/NRH equilibrium; format: physicochemical
Source text: After basification, a carbon dioxide rich gas stream was introduced to saturate and consequently acidify the solution.

[2] = Cyclic voltammetry redox durability of NR (100 cycles); conditions: after 100 cyclic voltammetry cycles
Source text: The electrochemistry of the NR aqueous solution was examined by CV at various pH levels between 6 and 12 (FIG. 2A).

[3] = for peak intensity degradation: nitrogen control
Source text: FIG. 5C is a UV-vis spectra for the oxygen sensitivity test.
FIG. 5D is a UV-vis spectra for the control experiment under nitrogen.
FIG. 5E is a UV-vis spectra for the stability test under carbon dioxide.
FIG. 5F is a UV-vis spectra for the stability test under air.
The factors contributing to the 455 nm peak degradation were examined, including decomposition, reoxidation, precipitation, and polymerization.
A third set of UV-vis absorption measurements […], this time on solutions contacted with carbon dioxide, was carried out. […] The final set of UV-vis absorption experiments in FIG. 5F was carried out using solutions bubbled with ambient air.

Structure (SMILES) | pKa [1] | decay in the peak current [2] | decomposition, reoxidation or polymerization products by NMR studies ([3]; NRH2 solutions) | sensitivity to oxygen ([3]; UV-vis absorption spectroscopy, 50 mM NRH2 in 1 M NA and 0.5 M KCl in water) | intensities of the 455 nm peak ([3]; bubbled with ambient air, 30 min and 2 h contact) | degradation of peak intensity at 455 nm ([3]; contacted with carbon dioxide, after a day) | peak intensity at 455 nm ([3]; contacting pure oxygen, 2 h) | peak intensity degradation ([3]; after 24 h) [%] | peak intensity degradation ([3]; after a week) [%] | peak intensity of NRH2 (455 nm) lowered by ([3]; oxygen atmosphere, a day) [%] | peak intensity of NRH2 (455 nm) lowered by ([3]; sealed under oxygen atmosphere after 24 h bubbling, a week) [%]
Cc1cc2nc3ccc(N(C)C)cc3nc2cc1N.Cl [NR, neutral red] | 6.8 | no significant decay |  |  |  |  |  |  |  |  | 
Cc1cc2c(cc1N)Nc1cc(N(C)C)ccc1N2 [NRH2, leuco-neutral red] |  |  | No major decomposition, reoxidation, or polymerization products | insensitive to oxygen | the same | no significant degradation | maintained | 33 | 53 | 42 | 52
